The target in assay [1] is T1, Translocator protein (Rattus norvegicus, UniProt P16257). The assay is described as follows: Displacement of [3H]PK11195 from rat kidney peripheral benzodiazepine receptor (type 2). Background: Displacement assays read how much labelled ligand stays bound in the presence of the test substance.
In assay [2] the target is T1, Translocator protein. The assay is described as follows: Displacement of [3H]PK11195 from rat kidney peripheral benzodiazepine receptor (type 1).
In assay [3] the target is T1, Translocator protein. As to the kind of experiment: Displacement of [3H]Ro-5-4864 from rat cerebral cortex peripheral benzodiazepine receptor. It is filed as tissue-based.
The target of assay [4] is T1, Translocator protein. As to the kind of experiment: Displacement of [3H]Ro-5-4864 from rat kidney peripheral benzodiazepine receptor.
For assay [5], the target named is T1, Translocator protein. As to the kind of experiment: Displacement of [3H]PK11195 from rat cerebral cortex peripheral benzodiazepine receptor (type 1). It is filed as tissue-based.
Assay [6] concerns the target T1, Translocator protein. The assay is described as follows: Binding affinity against peripheral benzodiazepine receptor( PBR).
The target in assay [7] is T1, Translocator protein. The assay is described as follows: Displacement of [3H]PK11195 from rat cerebral cortex peripheral benzodiazepine receptor (type 2). Format: tissue-based.
Assay [8] has as its target GABA-A receptor; anion channel. The assay is described as follows: Binding affinity against central benzodiazepine receptor(CBR). It is filed as protein-complex assay.
The target in assay [9] is T1, Translocator protein. As to the kind of experiment: Displacement of [3H]-PK11195 from rat kidney peripheral benzodiazepine receptor (type 2).

This passage reports IC50 results from ChEMBL document CHEMBL1129025, “Molecular basis of peripheral vs central benzodiazepine receptor selectivity in a new class of peripheral benzodiazepine receptor ligands related to alpidem” (J Med Chem, 1996).

T1 sequence (P16257 whole entry, looked up): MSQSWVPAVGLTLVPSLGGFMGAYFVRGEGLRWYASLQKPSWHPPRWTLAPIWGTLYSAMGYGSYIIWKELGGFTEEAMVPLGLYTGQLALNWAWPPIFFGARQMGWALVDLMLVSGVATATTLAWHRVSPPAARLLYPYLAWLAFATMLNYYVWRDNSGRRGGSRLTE

Broadly, the IC50 is the point on the concentration scale where inhibition reaches its midpoint. High values mean a need for much substance, low ones inhibition by little substance. Take `COc1ccc(N(C)C(=O)/C=C2\c3nc4ccccc4cc3C(=O)N2c2ccc(Cl)cc2)cc1`: the IC50 on Translocator protein [1] amounted to 14 nM; at Translocator protein [2] it was 0.7 nM; on Translocator protein [3], 2.3 nM; at Translocator protein [4], 1.7 nM; on Translocator protein [5], 9.8 nM; at Translocator protein [6], 1.9 nM. In addition, the 50% inhibitory concentration (IC50) at Translocator protein [7] stood at 320 nM.
Turning to `CCCCCCN(CCCCCC)C(=O)/C=C1\c2nc3ccccc3cc2C(=O)N1c1ccc(Cl)cc1`, the IC50 in assay [8] is above 1000 nM; at Translocator protein [6], 150 nM.
Consider `CCCN(CCC)C(=O)C=C1c2nc3ccccc3cc2C(=O)N1c1ccc(Cl)cc1`, for which the IC50 at Translocator protein [6] is above 1000 nM.
For `CN1CCN(C(=O)OC2c3nccnc3C(=O)N2c2ccc(Cl)cn2)CC1` (centres undefined) [ZOPICLONE], in assay [8], the IC50 turned out to be 29 nM.
As to `CCCN(CCC)C(=O)/C=C1\c2ncccc2C(=O)N1c1ccc(Cl)cc1`, the IC50 is above 1000 nM in assay [8] and 290 nM on Translocator protein [6].
For `CCCN(CCC)C(=O)CC1c2ncccc2C(=O)N1c1ccc(Cl)cc1` (centres undefined), the IC50 in assay [8] is 860 nM; on Translocator protein [6], above 1000 nM.
For the molecule `CN(C(=O)/C=C1\c2nc3ccccc3cc2C(=O)N1c1ccc(Cl)cc1)c1ccc(Cl)cc1`, the IC50 on Translocator protein [2] came to 1.1 nM; on Translocator protein [3] it was 4.5 nM; at Translocator protein [4] it was 2 nM; on Translocator protein [5], 2.4 nM; at Translocator protein [9], 140 nM; on Translocator protein [6], 32 nM. For the same molecule, the IC50 on Translocator protein [7] worked out at 610 nM.
Take `CCCCCCN(CCCCCC)C(=O)CC1c2nc3ccccc3cc2C(=O)N1c1ccc(Cl)cc1` (centres undefined): the IC50 (in assay [8]; at Translocator protein [6]) was above 1000 nM in each case.
Take `CCCN(CCC)C(=O)/C=C1\c2nc3ccccc3cc2C(=O)N1c1ccc(Cl)cc1`: the IC50 was 160 nM on Translocator protein [1]; 2.7 nM on Translocator protein [2]; 120 nM at Translocator protein [3]; 150 nM on Translocator protein [4]; 4.9 nM on Translocator protein [5]; above 1000 nM in assay [8]. For the same molecule, the IC50 at Translocator protein [6] amounted to 40 nM; at Translocator protein [7], 210 nM.
Turning to `O=C1c2cccnc2CN1c1ccc(Cl)cc1`, the IC50 (in [8]; at Translocator protein [6]) was above 1000 nM throughout.
For the molecule `CCCN(CCC)C(=O)CC1c2nc3ccccc3cc2C(=O)N1c1ccc(Cl)cc1` (centres undefined), the IC50 (in assay [8]; at Translocator protein [6]) was above 1000 nM in each case.
On to `CCCCCCN(CCCCCC)C(=O)/C=C1\c2ncccc2C(=O)N1c1ccc(Cl)cc1`, for which the IC50 is above 1000 nM in assay [8] and 33000 nM at Translocator protein [6].
`CN(Cc1ccccc1)C(=O)/C=C1\c2nc3ccccc3cc2C(=O)N1c1ccc(Cl)cc1`: at Translocator protein [6], the IC50 was above 1000 nM.
With `CCCCCCN(CCCCCC)C(=O)CC1c2ncccc2C(=O)N1c1ccc(Cl)cc1` (centres undefined), the IC50 was above 1000 nM in assay [8] and 1600 nM at Translocator protein [6].
`CCN(Cc1ccccc1)C(=O)/C=C1\c2nc3ccccc3cc2C(=O)N1c1ccc(Cl)cc1` yielded an IC50 at Translocator protein [6] above 1000 nM.
Regarding `CCCN(CCC)C(=O)Cc1c(-c2ccc(Cl)cc2)nc2ccc(Cl)cn12` [ALPIDEM], the IC50 in [8] turned out to be 28 nM; at Translocator protein [6], 7 nM.
